Data reported in US10301295B2, “Herbicidal compounds” (Syngenta Participations AG, priority 2014, dated 2019).
Where two headings read alike, the source gives them in different places.

Assays:
Assay type in all cases: in vivo
wheat = assay: Post-emergence herbicidal activity against cereal crops (wheat) +/- safener, crop selectivity; conditions: 100%=total damage to plant, 0%=no damage; for Post-emergence herbicidal activity against wheat (percentage phytotoxicity), +CQC: 250 g/ha, plus safener cloquintocet-mexyl (CQC) applied at 50 g/ha; for percent phytotoxicity (crop damage) to wheat at 250 g/ha: Triticum aestivum, 360 h, without safener, read-out: Post-emergence herbicidal activity against wheat (percentage phytotoxicity), Wheat - CQC
Procedure: (§1) Seeds of a variety of monocotyledonous and dicotyledonous test plants are sown in standard soil in pots. The plants are cultivated for one day (for pre-emergence) or for about 12 days (for post-emergence) under controlled conditions in a glasshouse (warm climate species at 24/18° C., cool climate species at 20/16° C., both at day/night; 16 hours light; 65% humidity). The test plants are then grown on, in a glasshouse (greenhouse) under controlled conditions (warm climate species at 24/18° C., cool climate species at 20/16° C., both at day/night; 16 hours light; 65% humidity) and are watered twice daily. 15 days after application of the test herbicide (15DAA) (for post-emergence), and 20 days after application of the test herbicide (20DAA) (for pre-emergence), the test plants are evaluated visually, and an assessed percentage phytotoxicity score is given for each herbicidal application on each plant species (with 100%=total damage to plant; 0%=no damage to plant).

Avena fatua (AVEFA) = assay: Glasshouse assay for herbicidal activity, pre-/post-emergence (percentage phytotoxicity); conditions: Rate 250 g/ha, 100%=total damage, 0%=no damage; for pest or weed control at 250 g/ha: Avena fatua
Procedure: as §1, with “plant). The plant species tested are as follows: Alopecurus myosuroides (ALOMY), Avena fatua (AVEFA), Lolium perenne (LOLPE), Echinochloa crus-galli (ECHCG).” for “plant).”

Lolium perenne (LOLPE) = assay: as above; conditions: Rate 250 g/ha, 100%=total damage, 0%=no damage; for pest or weed control at 250 g/ha: Lolium perenne
Procedure: as §1, with “plant). The plant species tested are as follows: Alopecurus myosuroides (ALOMY), Avena fatua (AVEFA), Lolium perenne (LOLPE), Echinochloa crus-galli (ECHCG).” for “plant).”

[1] = test system: Echinochloa crus-galli (ECHCG); assay: as above; conditions: Echinochloa crus-galli, Rate 250 g/ha, 100%=total damage, 0%=no damage
Procedure: as §1, with “plant). The plant species tested are as follows: Alopecurus myosuroides (ALOMY), Avena fatua (AVEFA), Lolium perenne (LOLPE), Echinochloa crus-galli (ECHCG).” for “plant).”

[2] = test system: Alopecurus myosuroides (ALOMY); assay: as above; conditions: Rate 250 g/ha, 100%=total damage, 0%=no damage; for pest or weed control at 250 g/ha: Alopecurus myosuroides
Procedure: as §1, with “plant). The plant species tested are as follows: Alopecurus myosuroides (ALOMY), Avena fatua (AVEFA), Lolium perenne (LOLPE), Echinochloa crus-galli (ECHCG).” for “plant).”

[3] = post-emergence, 360 h, post-emergence, visual assessment 15 DAA, read-out: Post-emergence herbicidal activity (percentage phytotoxicity), AVEFA POST
[4] = pre-emergence, 480 h, pre-emergence, visual assessment 20 DAA, read-out: Pre-emergence herbicidal activity (percentage phytotoxicity), AVEFA PRE
[5] = post-emergence, 360 h, post-emergence, visual assessment 15 DAA, read-out: Post-emergence herbicidal activity (percentage phytotoxicity), LOLPE POST
[6] = pre-emergence, 480 h, pre-emergence, visual assessment 20 DAA, read-out: Pre-emergence herbicidal activity (percentage phytotoxicity), LOLPE PRE
[7] = post-emergence, 360 h, post-emergence, visual assessment 15 DAA, read-out: Post-emergence herbicidal activity (percentage phytotoxicity), ECHCG POST
[8] = pre-emergence, 480 h, pre-emergence, visual assessment 20 DAA, read-out: Pre-emergence herbicidal activity (percentage phytotoxicity), ECHCG PRE
[9] = 360 h, post-emergence, visual assessment 15 DAA, read-out: Post-emergence herbicidal activity (percentage phytotoxicity), ALOMY POST
[10] = 480 h, pre-emergence, visual assessment 20 DAA, read-out: Pre-emergence herbicidal activity (percentage phytotoxicity), ALOMY PRE
[11] = pre-emergence, visual assessment 20 DAA
[12] = post-emergence, visual assessment 15 DAA

Row | Compound | Post-emergence herbicidal activity against wheat (percentage phytotoxicity), +CQC (wheat) [%] | percent phytotoxicity (crop damage) to wheat at 250 g/ha (wheat) [%] | pest or weed control at 250 g/ha (Avena fatua (AVEFA); [3]) [%] | pest or weed control at 250 g/ha (Avena fatua (AVEFA); [4]) [%] | pest or weed control at 250 g/ha (Lolium perenne (LOLPE); [5]) [%] | pest or weed control at 250 g/ha (Lolium perenne (LOLPE); [6]) [%] | pest or weed control at 250 g/ha [1, 7] [%] | pest or weed control at 250 g/ha [1, 8] [%] | pest or weed control at 250 g/ha [2, 9] [%] | pest or weed control at 250 g/ha [2, 10] [%] | Pre-emergence herbicidal activity (percentage phytotoxicity), AVEFA PRE (Avena fatua (AVEFA); [11]) [%] | Post-emergence herbicidal activity (percentage phytotoxicity), LOLPE POST (Lolium perenne (LOLPE); [12]) [%] | Pre-emergence herbicidal activity (percentage phytotoxicity), LOLPE PRE (Lolium perenne (LOLPE); [11]) [%] | Post-emergence herbicidal activity (percentage phytotoxicity), ALOMY POST [2, 12] [%]
1 | Cc1cc(C)c(C2C(=O)CC(CCNC(N)=O)C2=O)c(C)c1 (stereo not shown) [Compound A6] | 10 | 10 | 90 | 0 | 90 | 80 | 100 | 90 | 70 | 30 |  |  |  | 
2 | Cc1cc(C)c(C2C(=O)CC(CCNC(=O)Nc3cc(C(C)(C)C)on3)C2=O)c(C)c1 (stereo not shown) [Compound A15] | 30 | 40 | 50 | 50 | 70 | 70 | 30 | 70 | 60 | 70 |  |  |  | 
3 | Cc1cc(-c2ncc(Cl)cc2F)cc(C)c1C1C(=O)CC(CCNC(=O)NC(C)(C)C)C1=O.Cl (stereo not shown) [Compound A29] | 70 | 90 | 100 | 100 | 100 | 100 | 100 | 90 | 100 | 90 |  |  |  | 
4 | Cc1cc(C)c(C2C(=O)CC(CCNC(=O)NC(=O)c3ccccc3F)C2=O)c(C)c1 (stereo not shown) [Compound A54] | 80 | 90 | 100 | 60 | 100 | 80 | 100 | 80 | 100 | 60 |  |  |  | 
5 | Cc1cc(C)c(C2C(=O)CC(CCNC(=O)NC(=O)c3ccc(C(F)(F)F)c(F)c3)C2=O)c(C)c1 (stereo not shown) [Compound A61] | 40 | 70 | 0 | 30 | 70 | 40 | 70 | 30 | 40 | 20 |  |  |  | 
6 | CON=C(C#N)C(=O)NCCC1CC(=O)C(c2c(C)cc(-n3cc(Cl)cn3)cc2C)C1=O (stereo not shown) [Compound A42] | 10 | 0 | 0 | 0 | 10 | 0 | 70 | 0 | 0 | 0 |  |  |  | 
7 | Cc1cc(C)c(C2C(=O)CC(CCNS(=O)(=O)c3ccccc3C)C2=O)c(C)c1 (stereo not shown) [Compound A87] | 0 | 20 | 50 | 0 | 0 | 70 | 0 | 30 | 0 | 0 |  |  |  | 
8 | CONC(=O)NCCC1CC(=O)C(c2c(C)cc(C)cc2C)C1=O (stereo not shown) [Compound A18] | 0 | 60 | 80 | 50 | 80 | 70 | 90 | 60 | 80 | 60 |  |  |  | 
9 | Cc1cc(C)c(C2C(=O)CC(CCNC(=O)NC(=O)c3ccc(Cl)c(Cl)c3)C2=O)c(C)c1 (stereo not shown) [Compound A68] | 0 | 90 | 0 | 10 | 80 | 30 | 70 | 10 | 50 | 0 |  |  |  | 
10 | Cc1cc(C)c(C2C(=O)CC(CCNC(=S)Nc3ccccc3)C2=O)c(C)c1 (stereo not shown) [Compound A90, 1-[2-[2,4-dioxo-3-(2,4,6-trimethylphenyl)cyclopentyl]ethyl]-3-phenyl-thiourea] | 20 | 0 | 60 | 0 | 20 | 70 | 60 | 40 | 20 | 0 |  |  |  | 
11 | Cc1cc(C)c(C2C(=O)CC(CCNC(=O)NC(=O)c3ccc(OC(F)(F)F)cc3)C2=O)c(C)c1 (stereo not shown) [Compound A71] | 20 | 80 | 50 | 20 | 80 | 40 | 80 | 0 | 20 | 30 |  |  |  | 
12 | Cc1cc(-n2cc(Cl)cn2)cc(C)c1C1C(=O)CC(CCNC(=O)NC(C)(C)C)C1=O (stereo not shown) [Compound A21] | 70 | 90 | 100 | 90 | 90 | 80 | 100 | 100 | 90 | 90 |  |  |  | 
13 | CON=C(C)C(=O)NCCC1CC(=O)C(c2c(C)cc(-n3cc(Cl)cn3)cc2C)C1=O (stereo not shown) [Compound A38] | 30 | 70 | 80 | 70 | 80 | 70 | 100 | 100 | 70 | 70 |  |  |  | 
14 | Cc1cc(C)c(C2C(=O)CC(CCN(C)C(=O)Nc3ccccn3)C2=O)c(C)c1 (stereo not shown) [Compound A17] | 10 | 50 |  |  |  |  |  |  |  |  | 0 | 40 | 30 | 70
